Calls of active or inactive are those of the source.
Key:
[1] = Luminescence Cell-Based Dose Response HTS to Identify Inhibitors of 5'UTR Stem-Loop Driven Prion Protein mRNA Translation in H4 Neuroglioblastoma Cells. [Related pubchem assays: 1827 (Project Summary), 1813 (Primary HTS)]; format: functional
[2] = alpha-synuclein stem-loop luciferase translation blockers – H4 neuroglioma cells, luminescence, confirmation (AID 1988); format: functional, cell-based
[3] = luciferase reporter signal suppression in cells – H4 neuroglioma cells, luminescence, dose response (AID 1990); format: functional, cell-based
[4] = target: Type-1 angiotensin II receptor (Homo sapiens, UniProt P30556); assay: agonist activity at AGTR1 – cell-based, uHTS hits, selectivity assay for APJ receptor agonist project, dose response (AID 488865); format: functional;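 also: beta-arrestin recruitment to AT1 measured by enzyme fragment complementation luminescence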
Hexokinase = Hexokinase (Trypanosoma brucei, UniProt Q38C41); assay: Confirmation assay for inhibitors of Trypanosoma brucei hexokinase 1-Analogue-first series. [Related pubchem assays (depositor defined):AID1430, AID1632, AID2516, AID2560, AID2579, AID2600, AID449725, AID492951]; format: functional
Coagulation factor XII = target: T1, Coagulation factor XII (Homo sapiens, UniProt P00748); assay: Factor XIIa Dose Response Confirmation from Single Well HTS. [Related pubchem assays (depositor defined):AID701]; format: functional
T1 sequence (P00748 whole entry): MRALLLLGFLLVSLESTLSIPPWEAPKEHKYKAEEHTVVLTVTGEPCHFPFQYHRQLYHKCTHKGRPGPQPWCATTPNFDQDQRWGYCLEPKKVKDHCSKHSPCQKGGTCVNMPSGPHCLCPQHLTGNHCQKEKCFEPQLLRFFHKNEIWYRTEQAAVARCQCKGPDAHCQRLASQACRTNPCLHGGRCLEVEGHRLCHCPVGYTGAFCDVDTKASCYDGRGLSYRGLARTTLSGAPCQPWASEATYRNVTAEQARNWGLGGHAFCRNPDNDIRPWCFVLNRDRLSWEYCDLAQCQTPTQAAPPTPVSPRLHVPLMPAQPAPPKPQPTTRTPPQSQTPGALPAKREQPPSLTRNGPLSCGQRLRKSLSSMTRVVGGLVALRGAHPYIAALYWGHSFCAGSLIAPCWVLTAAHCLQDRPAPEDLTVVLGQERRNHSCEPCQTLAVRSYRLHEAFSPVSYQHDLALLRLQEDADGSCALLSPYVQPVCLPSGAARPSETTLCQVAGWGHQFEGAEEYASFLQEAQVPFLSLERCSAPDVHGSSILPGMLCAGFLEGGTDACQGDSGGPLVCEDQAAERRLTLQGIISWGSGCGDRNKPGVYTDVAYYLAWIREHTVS

[5] = target: Alkaline phosphatase, placental type (Homo sapiens, UniProt P05187); assay: human placental alkaline phosphatase inhibition – biochemical, luminescence, confirmation (AID 1512); format: functional
[6] = target: T2, Alkaline phosphatase, tissue-nonspecific isozyme (Homo sapiens, UniProt P05186); assay: potency against alkaline phosphatase TNAP – biochemical, luminescent, dose response, SAR follow-up (AID 1056)
T2 sequence (P05186 whole entry): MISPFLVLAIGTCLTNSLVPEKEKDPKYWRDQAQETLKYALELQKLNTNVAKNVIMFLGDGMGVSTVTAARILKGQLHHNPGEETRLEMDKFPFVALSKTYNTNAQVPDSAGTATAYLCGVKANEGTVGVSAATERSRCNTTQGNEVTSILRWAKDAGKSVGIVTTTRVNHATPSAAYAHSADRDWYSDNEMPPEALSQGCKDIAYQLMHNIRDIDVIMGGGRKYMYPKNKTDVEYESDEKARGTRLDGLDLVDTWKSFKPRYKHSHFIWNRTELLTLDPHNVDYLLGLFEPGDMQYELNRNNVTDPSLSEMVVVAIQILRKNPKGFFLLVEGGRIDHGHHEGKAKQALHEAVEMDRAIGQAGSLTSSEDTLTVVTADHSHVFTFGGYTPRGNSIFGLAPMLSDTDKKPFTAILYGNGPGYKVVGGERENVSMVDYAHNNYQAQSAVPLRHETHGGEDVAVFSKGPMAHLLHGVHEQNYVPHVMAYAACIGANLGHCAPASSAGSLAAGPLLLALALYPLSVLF

[7] = target: Glyceraldehyde-3-phosphate dehydrogenase (Homo sapiens, UniProt P04406)
Aspartyl aminopeptidase = Aspartyl aminopeptidase (Plasmodium falciparum 3D7, UniProt Q8I2J3); assay: Counterscreen for inhibitors of M1 and M17 aminopeptidases: QFRET-based biochemical high throughput dose response assay for inhibitors of the Plasmodium falciparum M18 Aspartyl Aminopeptidase (PFM18AAP). [Related PubChem assays: 1619 (Screening assay (M17LAP inhibitors).), 1445 (Screening assay (M1AAP inhibitors).)]
Phosphomannomutase 2 = Phosphomannomutase 2 (Homo sapiens, UniProt O15305); assay: Counter screen SAR assay for PMM2 inhibitors via a fluorescence intensity assay. [Related pubchem assays (depositor defined):AID1545, AID1574]
[8] = target: Peroxisome proliferator-activated receptor gamma/Nuclear receptor coactivator 2 (Homo sapiens, UniProt P37231); assay: TR-FRET dose response biochemical High Throughput Screening assay for agonists of the steroid receptor coactivator 2 (SRC-2) recruitment by the peroxisome proliferator-activated receptor gamma (PPAR gamma): non-selective agonists. [Related pubchem assays: 1297, 1032 ]; format: functional
Procathepsin L = Procathepsin L (Homo sapiens, UniProt P07711); assay: CTSL1 protease inhibition – biochemical, QFRET, 1536-well, counter-screen for M1/M17 aminopeptidase inhibitor project, dose response (AID 2214)
[9] = target: Peroxisome proliferator-activated receptor gamma/Nuclear receptor coactivator 1 (Homo sapiens, UniProt P37231); assay: TR-FRET dose response biochemical High Throughput Screening assay for agonists of the steroid receptor coactivator 1 (SRC-1) recruitment by the peroxisome proliferator-activated receptor gamma (PPAR gamma): non-selective agonists. [Related pubchem assays (depositor defined):AID1300, AID1808, AID504735, AID631]; format: protein assay
[10] = target: Peroxisome proliferator-activated receptor gamma/Nuclear receptor coactivator 3 (Homo sapiens, UniProt P37231); assay: TR-FRET dose response biochemical High Throughput Screening assay for agonists of the steroid receptor coactivator 3 (SRC-3) recruitment by the peroxisome proliferator-activated receptor gamma (PPAR gamma): non-selective agonists. [Related pubchem assays: 1301 (Confirmation screen.), 1048 (Primary screen.)]; format: functional
Leucine aminopeptidase = target: T3, Leucine aminopeptidase (Plasmodium falciparum 3D7, UniProt Q8IL11); assay: P. falciparum M17LAP inhibitors, primary screen, biochemical, fluorogenic H-Leu-NHMec substrate, 1536-well (AID 1619); format: functional
T3 sequence (Q8IL11 whole entry): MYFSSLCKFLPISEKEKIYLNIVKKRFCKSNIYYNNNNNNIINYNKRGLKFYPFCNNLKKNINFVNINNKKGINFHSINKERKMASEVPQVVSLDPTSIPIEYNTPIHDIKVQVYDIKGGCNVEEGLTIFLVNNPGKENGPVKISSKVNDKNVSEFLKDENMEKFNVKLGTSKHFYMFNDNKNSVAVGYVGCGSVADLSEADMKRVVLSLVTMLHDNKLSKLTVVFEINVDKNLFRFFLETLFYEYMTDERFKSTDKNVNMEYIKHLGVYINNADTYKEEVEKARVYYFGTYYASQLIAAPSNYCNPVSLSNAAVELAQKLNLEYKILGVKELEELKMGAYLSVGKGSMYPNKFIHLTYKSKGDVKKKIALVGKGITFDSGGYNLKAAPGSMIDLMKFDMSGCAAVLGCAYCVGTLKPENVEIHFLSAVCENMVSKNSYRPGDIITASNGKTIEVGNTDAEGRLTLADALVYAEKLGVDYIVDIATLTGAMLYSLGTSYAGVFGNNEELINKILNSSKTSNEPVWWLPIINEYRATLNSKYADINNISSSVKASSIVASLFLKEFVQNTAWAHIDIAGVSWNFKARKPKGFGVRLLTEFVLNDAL

[11] = target: T4, Mannose-6-phosphate isomerase (Homo sapiens, UniProt P34949); assay: phosphomannose isomerase inhibition – biochemical, fluorescence intensity, confirmation (AID 1535)
T4 sequence (P34949 whole entry): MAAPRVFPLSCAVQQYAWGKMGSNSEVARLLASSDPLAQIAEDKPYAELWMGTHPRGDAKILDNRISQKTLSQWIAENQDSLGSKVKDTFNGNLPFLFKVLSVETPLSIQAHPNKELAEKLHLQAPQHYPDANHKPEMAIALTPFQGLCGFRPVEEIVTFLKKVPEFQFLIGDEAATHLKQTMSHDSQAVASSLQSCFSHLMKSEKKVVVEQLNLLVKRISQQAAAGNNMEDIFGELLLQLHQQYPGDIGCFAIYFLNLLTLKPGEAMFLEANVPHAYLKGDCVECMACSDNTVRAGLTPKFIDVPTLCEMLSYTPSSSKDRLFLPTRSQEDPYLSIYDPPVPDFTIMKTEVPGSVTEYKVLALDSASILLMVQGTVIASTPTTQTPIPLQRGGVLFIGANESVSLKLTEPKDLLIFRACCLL

[12] = target: FAD-linked sulfhydryl oxidase ALR (Homo sapiens, UniProt P55789); assay: ALR-catalysed DTT oxidation blockers – biochemical, H2O2 detection, luminescence, cherry-pick, dose response (AID 493248)
[13] = target: T5, Microphthalmia-associated transcription factor (Homo sapiens, UniProt O75030); assay: MITF Measured in Cell-Based System Using Plate Reader - 2084-01_Inhibitor_DoseNoFile_CherryPick_Activity_Set2. [Related pubchem assays (depositor defined):AID488944]; format: functional
T5 sequence (O75030 whole entry): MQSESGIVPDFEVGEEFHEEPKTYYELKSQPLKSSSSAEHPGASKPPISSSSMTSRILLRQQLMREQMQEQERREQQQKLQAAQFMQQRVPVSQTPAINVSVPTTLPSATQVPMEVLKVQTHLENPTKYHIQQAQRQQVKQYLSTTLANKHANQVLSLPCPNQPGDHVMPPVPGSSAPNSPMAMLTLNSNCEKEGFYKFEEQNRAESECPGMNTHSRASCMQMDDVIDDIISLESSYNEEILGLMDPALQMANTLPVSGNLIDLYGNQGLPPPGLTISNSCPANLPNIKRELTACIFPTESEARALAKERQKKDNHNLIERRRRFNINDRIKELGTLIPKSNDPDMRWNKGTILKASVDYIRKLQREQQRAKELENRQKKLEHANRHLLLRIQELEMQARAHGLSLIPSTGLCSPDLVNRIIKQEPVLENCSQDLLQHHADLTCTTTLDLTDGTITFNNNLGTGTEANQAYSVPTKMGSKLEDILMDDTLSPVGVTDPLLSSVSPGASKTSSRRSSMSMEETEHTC

[14] = target: T6, E3 ubiquitin-protein ligase XIAP (Homo sapiens, UniProt P98170); assay: small molecules displacing peptide from XIAP – biochemical, IAP family, fluorescence polarization (AID 1018); format: functional
[15] = target: T6, E3 ubiquitin-protein ligase XIAP; assay: Counter Screen using XIAP-Bir3 for Chemical Antagonists of Bir1/2 domains of IAP-family anti-apoptotic proteins. [Related pubchem assays (depositor defined):AID1018, AID1449, AID1514, AID1638, AID1749, AID1750, AID488957, AID488963]
[16] = target: T5, Microphthalmia-associated transcription factor; assay: reducers of TRPM1 reporter luminescence, concentration series – cell-based, SK-MEL-5, cherry-picked, set 4, MITF inhibitor project, dose response (AID 493102); format: functional
[17] = target: T5, Microphthalmia-associated transcription factor; assay: reducers of TRPM1 reporter luminescence, concentration series – cell-based, SK-MEL-5, cherry-picked, set 3, MITF inhibitor project, dose response (AID 493073); format: functional;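 also: SK-MEL-5 melanoma cells with luciferase driven by the MITF target TRPM1 promoter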
T-cell = assay: loss of vesicle association with mouse CD8+ T cells – mouse 2C CD8+ T cells, flow cytometry, dose response (AID 485284); format: functional
[18] = target: T7, Kappa-type opioid receptor (Homo sapiens, UniProt P41145); assay: SAR analysis of small molecule antagonists of the kappa opioid receptor via a luminescent beta-arrestin assay - Set 3. [Related pubchem assays (depositor defined):AID1777, AID1778, AID1785, AID1786, AID1966, AID2133, AID2136, AID2285, AID2495]; format: functional
Mu-type opioid receptor = Mu-type opioid receptor (Homo sapiens, UniProt P35372); assay: SAR Analysis of Antagonists of the MOR Receptor using an Image-Based Assay - Set 3. [Related pubchem assays (depositor defined):AID1777, AID1785, AID1786, AID1966, AID2133, AID2136, AID2284, AID2285, AID2420]; format: functional
[19] = target: Delta-type opioid receptor (Homo sapiens, UniProt P41143); assay: SAR Analysis of Antagonists of the DOR Receptor using an Image-Based Assay - Set 3. [Related pubchem assays (depositor defined):AID1777, AID1785]; format: functional;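 also: U2OS cells expressing DOR1 and beta-arrestin GFP stimulated with 100 nM SNC80; imaging of GFP-tagged beta-arrestin moving into spots after receptor activation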
[20] = target: T7, Kappa-type opioid receptor; assay: SAR analysis of Antagonists of the Kappa Opioid Receptor (KOR) using an Image-Based Assay - Set 4. [Related pubchem assays (depositor defined):AID1777, AID1785]; format: functional

T6 sequence (P98170 whole entry): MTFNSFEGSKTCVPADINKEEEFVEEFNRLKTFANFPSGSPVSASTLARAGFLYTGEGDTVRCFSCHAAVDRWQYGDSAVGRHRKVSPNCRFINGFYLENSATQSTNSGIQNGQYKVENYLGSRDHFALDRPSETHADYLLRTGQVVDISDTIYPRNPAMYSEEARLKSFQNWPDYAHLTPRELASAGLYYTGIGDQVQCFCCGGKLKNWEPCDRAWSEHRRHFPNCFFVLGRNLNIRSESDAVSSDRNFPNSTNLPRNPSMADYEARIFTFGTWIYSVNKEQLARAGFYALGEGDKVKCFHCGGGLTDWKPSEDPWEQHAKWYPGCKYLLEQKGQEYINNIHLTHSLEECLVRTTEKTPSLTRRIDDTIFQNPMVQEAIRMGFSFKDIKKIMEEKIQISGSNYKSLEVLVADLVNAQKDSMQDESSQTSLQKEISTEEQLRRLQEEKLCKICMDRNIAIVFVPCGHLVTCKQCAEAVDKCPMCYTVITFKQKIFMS
T7 sequence (P41145 whole entry): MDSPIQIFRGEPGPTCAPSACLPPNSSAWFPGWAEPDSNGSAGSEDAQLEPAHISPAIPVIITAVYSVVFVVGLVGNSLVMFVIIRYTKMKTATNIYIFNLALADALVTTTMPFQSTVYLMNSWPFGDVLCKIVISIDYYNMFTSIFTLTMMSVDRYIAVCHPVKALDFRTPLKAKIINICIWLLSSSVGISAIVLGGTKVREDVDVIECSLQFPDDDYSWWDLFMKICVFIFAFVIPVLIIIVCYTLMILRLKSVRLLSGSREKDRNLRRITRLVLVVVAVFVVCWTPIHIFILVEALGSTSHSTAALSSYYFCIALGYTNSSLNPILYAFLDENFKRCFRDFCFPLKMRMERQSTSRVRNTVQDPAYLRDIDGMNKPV
Chain of Phosphomannomutase 2 (O15305 whole entry): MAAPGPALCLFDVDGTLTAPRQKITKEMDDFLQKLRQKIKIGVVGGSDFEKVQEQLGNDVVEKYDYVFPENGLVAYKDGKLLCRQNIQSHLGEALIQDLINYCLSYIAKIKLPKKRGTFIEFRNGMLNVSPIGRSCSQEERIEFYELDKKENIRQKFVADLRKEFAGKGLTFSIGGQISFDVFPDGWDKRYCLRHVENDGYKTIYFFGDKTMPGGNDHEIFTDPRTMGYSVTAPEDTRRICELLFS
Chain of Alkaline phosphatase, placental type (P05187 whole entry): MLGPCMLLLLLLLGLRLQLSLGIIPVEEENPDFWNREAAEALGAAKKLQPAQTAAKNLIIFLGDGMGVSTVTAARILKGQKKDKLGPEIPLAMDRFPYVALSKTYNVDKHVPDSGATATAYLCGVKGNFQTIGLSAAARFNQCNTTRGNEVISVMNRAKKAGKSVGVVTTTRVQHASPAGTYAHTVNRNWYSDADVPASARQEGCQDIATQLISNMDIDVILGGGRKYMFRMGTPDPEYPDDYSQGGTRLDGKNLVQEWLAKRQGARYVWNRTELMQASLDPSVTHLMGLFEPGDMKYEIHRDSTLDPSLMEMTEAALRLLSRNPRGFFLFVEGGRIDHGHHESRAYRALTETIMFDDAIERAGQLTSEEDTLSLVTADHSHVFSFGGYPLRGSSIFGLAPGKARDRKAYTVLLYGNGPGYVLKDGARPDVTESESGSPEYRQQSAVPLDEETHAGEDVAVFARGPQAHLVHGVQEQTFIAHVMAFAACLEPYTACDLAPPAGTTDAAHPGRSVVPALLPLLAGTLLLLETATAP
Chain of Glyceraldehyde-3-phosphate dehydrogenase (P04406 whole entry): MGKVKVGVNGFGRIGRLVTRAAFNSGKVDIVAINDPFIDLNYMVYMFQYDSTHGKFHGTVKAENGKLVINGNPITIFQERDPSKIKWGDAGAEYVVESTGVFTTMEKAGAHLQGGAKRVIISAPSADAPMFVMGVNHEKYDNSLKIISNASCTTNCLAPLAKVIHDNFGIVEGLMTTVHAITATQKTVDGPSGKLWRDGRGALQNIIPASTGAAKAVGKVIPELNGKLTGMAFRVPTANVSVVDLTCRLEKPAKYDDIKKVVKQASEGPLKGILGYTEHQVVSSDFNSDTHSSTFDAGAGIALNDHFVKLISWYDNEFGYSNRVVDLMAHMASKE
Chain of Procathepsin L (P07711 whole entry): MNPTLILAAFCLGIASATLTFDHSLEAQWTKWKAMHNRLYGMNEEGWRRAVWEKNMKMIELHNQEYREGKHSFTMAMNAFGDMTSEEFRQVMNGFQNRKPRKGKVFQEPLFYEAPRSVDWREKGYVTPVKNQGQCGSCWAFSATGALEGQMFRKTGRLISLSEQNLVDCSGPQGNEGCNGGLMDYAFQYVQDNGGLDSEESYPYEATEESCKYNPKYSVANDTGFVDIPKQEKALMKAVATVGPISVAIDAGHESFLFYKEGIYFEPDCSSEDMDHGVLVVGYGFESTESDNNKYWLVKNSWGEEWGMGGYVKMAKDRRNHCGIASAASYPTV
Chain of Mu-type opioid receptor (P35372 whole entry): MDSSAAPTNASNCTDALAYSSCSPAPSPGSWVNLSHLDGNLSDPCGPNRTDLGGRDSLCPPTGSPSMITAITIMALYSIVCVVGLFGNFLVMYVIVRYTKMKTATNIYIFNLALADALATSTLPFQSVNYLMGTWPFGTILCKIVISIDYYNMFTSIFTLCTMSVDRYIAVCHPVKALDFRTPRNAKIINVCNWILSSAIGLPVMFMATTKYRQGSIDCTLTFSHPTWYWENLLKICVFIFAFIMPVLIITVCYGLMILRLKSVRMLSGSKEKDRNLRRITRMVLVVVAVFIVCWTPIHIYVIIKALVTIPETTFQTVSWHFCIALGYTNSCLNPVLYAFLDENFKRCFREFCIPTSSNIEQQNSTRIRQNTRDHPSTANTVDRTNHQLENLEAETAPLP
Chain of Type-1 angiotensin II receptor (P30556 whole entry, the tested form may be a part): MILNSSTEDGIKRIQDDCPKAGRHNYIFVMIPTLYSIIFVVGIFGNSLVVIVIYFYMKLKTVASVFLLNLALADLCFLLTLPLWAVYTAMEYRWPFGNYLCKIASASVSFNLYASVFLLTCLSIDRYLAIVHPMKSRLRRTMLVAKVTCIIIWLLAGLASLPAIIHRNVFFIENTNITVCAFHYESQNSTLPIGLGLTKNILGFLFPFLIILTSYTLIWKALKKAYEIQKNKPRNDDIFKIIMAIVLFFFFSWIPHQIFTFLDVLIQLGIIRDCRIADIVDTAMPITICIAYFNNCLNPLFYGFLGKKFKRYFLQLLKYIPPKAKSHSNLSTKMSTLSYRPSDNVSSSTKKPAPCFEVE
Chain of Hexokinase (Q38C41 whole entry): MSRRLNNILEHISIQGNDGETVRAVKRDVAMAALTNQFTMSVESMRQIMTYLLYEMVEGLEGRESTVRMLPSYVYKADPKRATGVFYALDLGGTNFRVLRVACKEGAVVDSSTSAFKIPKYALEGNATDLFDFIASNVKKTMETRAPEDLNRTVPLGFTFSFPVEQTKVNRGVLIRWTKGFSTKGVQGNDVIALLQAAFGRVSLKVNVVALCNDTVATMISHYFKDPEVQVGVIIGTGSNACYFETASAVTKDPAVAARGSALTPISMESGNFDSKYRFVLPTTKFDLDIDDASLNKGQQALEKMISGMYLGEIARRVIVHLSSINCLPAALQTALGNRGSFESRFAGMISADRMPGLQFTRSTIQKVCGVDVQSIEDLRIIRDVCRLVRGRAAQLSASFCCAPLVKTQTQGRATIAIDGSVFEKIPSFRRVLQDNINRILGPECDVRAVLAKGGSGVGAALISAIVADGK
Chain of FAD-linked sulfhydryl oxidase ALR (P55789 whole entry): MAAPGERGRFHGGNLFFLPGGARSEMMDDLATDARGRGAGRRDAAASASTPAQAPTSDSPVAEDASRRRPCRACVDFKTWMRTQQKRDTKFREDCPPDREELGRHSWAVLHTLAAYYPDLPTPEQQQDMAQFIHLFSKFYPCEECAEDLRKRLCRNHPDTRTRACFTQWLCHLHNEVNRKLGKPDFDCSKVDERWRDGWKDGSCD
Chain of Delta-type opioid receptor (P41143 whole entry): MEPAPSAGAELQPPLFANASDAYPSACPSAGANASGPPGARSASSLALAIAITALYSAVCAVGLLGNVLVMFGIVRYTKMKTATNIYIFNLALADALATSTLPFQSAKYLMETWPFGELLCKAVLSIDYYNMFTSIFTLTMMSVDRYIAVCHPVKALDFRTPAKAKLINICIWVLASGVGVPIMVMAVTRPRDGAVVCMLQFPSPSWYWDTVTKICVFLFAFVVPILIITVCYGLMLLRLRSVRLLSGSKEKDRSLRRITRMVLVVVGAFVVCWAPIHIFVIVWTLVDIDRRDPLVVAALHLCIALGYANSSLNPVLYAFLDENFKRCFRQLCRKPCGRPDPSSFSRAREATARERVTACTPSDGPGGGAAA
Chain of Aspartyl aminopeptidase (Q8I2J3 whole entry): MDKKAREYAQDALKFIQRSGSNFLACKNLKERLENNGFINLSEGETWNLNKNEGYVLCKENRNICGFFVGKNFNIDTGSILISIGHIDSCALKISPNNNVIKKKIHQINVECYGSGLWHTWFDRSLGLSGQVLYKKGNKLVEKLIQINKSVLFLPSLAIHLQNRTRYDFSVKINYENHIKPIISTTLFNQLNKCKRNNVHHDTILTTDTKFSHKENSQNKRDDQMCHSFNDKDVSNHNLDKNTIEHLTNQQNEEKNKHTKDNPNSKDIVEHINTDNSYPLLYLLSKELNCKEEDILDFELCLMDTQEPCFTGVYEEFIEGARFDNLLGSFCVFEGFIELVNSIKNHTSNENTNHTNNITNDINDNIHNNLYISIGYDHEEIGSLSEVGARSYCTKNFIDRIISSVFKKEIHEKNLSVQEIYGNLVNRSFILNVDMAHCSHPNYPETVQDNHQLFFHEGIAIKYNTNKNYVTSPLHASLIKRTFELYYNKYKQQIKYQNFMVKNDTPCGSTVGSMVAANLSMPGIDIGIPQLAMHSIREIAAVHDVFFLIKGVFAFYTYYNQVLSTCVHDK

SMILES: C=CCn1c(SCC(=O)N2CCN(c3ccccc3)CC2)nc2c3ccccc3nc-2c1O
- EC50 [1]: 14.2 µM (active)
- EC50 [2]: 8.55 µM (active)
- EC50 [3]: > 120 µM (not active)
- EC50 [4]: > 100 µM (inactive)

SMILES: O=C(Nc1cc(Cl)ccc1C(=O)O)c1ccsc1
- IC50 (Hexokinase): > 25 µM (inactive)

SMILES: O=C(Oc1ccc2c3c(c(=O)oc2c1)CCC3)c1ccco1
- IC50 (Coagulation factor XII): 6.22 µM (active)

SMILES: CSc1nnc(NC(=O)c2cc(F)c(F)c(F)c2F)[nH]1
- IC50 [5]: > 100 µM (inactive)
- IC50 [6]: > 100 µM (inactive)
- IC50 [7]: > 100 µM (not active)

SMILES: Sc1n[nH]c(-c2cccc(Cl)c2)n1
- IC50 (Aspartyl aminopeptidase): 15.6 µM (not active)
- IC50 (Phosphomannomutase 2): > 100 µM (inactive)
- EC50 [8]: > 79.4 µM (not active)
- IC50 (Procathepsin L): > 59.6 µM (not active)
- EC50 [9]: > 79.4 µM (inactive)
- EC50 [10]: > 79.4 µM (not active)
- IC50 (Leucine aminopeptidase): 3.56 µM (active)
- IC50 [11]: 1.94 µM (active)
- AC50 [12]: 0.097 µM (active)

SMILES: Cc1cc2oc(=O)cc(C)c2cc1NC(=O)CCC(=O)O
- AC50 [13]: > 350 µM (inactive)
- IC50 [14]: > 100 µM (not active)
- IC50 [15]: > 100 µM (inactive)
- AC50 [16]: > 350 µM (inactive)
- AC50 [17]: > 350 µM (inactive)

SMILES: COc1ccc(S(=O)(=O)N2CCCCC2)cc1NC(=O)c1cnc(C)cn1
- EC50 (T-cell): 0.558 µM (active)

SMILES: Cc1ccnc2c1n1cccc1c(=O)n2CC(=O)NCCCN1CCN(c2ccccc2)CC1
- IC50 [18]: 4.95 µM (active)
- IC50 (Mu-type opioid receptor): 22.5 µM (inactive)
- IC50 [19]: > 32 µM (inactive)
- IC50 [20]: 2.56 µM (active)
